Earlier results, collected in patent US20110236881A1, “MODULATION OF INFLUENZA VIRUS” (priority 2008, published 2011).

Target: full-length M2 (Influenza A virus, UniProt P0DOF5)
Settings: the protein binds a single drug molecule per tetramer

full-length M2, sequence (P0DOF5 whole entry): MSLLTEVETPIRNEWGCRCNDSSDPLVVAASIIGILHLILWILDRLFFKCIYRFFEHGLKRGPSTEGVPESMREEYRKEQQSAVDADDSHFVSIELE

For `NC12CC3CC(CC(C3)C1)C2` [amantadine], the “cooperativity factor of inhibition of full-length M2” value is given as 1.0.
